Experimental findings from patent US20230017045A1, “PYRIDINE AND PYRIMIDINE CARBOXYLATE HERBICIDES AND METHODS OF USE THEREOF” (Dow AgroSciences LLC, priority 2017, published 2023) are described below.

In the experiment the test system is test plant species. Put plainly: Post-emergent herbicidal activity test (greenhouse, foliar spray, visual growth reduction). The conditions noted are these: post-emergence, 336 h, 140 g ai/ha, 14 days after application. Type of experiment: in vivo. A digest of the protocol: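 Greenhouse plants at first–second true leaf stage sprayed overhead at 187 L/ha with compound in acetone/water/isopropanol/DMSO/crop oil/X-77 carrier; controls received solvent blank. Injury rated visually after 14 d on a 0–100% scale versus untreated and control plants, converted to growth reduction.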

[1] abbreviates: ALOMY: blackgrass (Alopecurus myosuroides), read-out: Visual Growth Reduction (%) 14 Days After Application, ALOMY.
Setting [2] is: AMARE: redroot pigweed (Amaranthus retroflexus), read-out: Visual Growth Reduction (%) 14 Days After Application, AMARE.
[3] abbreviates: AVEFA: wild oat (Avena fatua), read-out: Visual Growth Reduction (%) 14 Days After Application, AVEFA.
The mark [4] stands for this setting: CHEAL: lambsquarters (Chenopodium album), read-out: Visual Growth Reduction (%) 14 Days After Application, CHEAL.
Setting [5] is: CIRAR: canada thistle (Cirsium arvense), read-out: Visual Growth Reduction (%) 14 Days After Application, CIRAR.
Where [6] appears, read: CYPES: yellow nutsedge (Cyperus esculentus), read-out: Visual Growth Reduction (%) 14 Days After Application, CYPES.
The mark [7] stands for this setting: DIGSA: crabgrass (Digitaria sanguinalis), read-out: Visual Growth Reduction (%) 14 Days After Application, DIGSA.
The mark [8] stands for this setting: ECHCG: barnyardgrass (Echinochloa crus-galli), read-out: Visual Growth Reduction (%) 14 Days After Application, ECHCG.
The mark [9] stands for this setting: IPOHE: ivy-leaf morning glory (Ipomoea hederacea), read-out: Visual Growth Reduction (%) 14 Days After Application, IPOHE.
The mark [10] stands for this setting: KCHSC: kochia (Bassia scoparia), read-out: Visual Growth Reduction (%) 14 Days After Application, KCHSC.
The mark [11] stands for this setting: ORYSA: rice (Oryza sativa), read-out: Visual Growth Reduction (%) 14 Days After Application, ORYSA.
Setting [12] is: SETFA: giant foxtail (Setaria faberi), read-out: Visual Growth Reduction (%) 14 Days After Application, SETFA.
[13] abbreviates: SORVU: grain sorghum (Sorghum vulgare), read-out: Visual Growth Reduction (%) 14 Days After Application, SORVU.
[14] abbreviates: STEME: common chickweed (Stellaria media), read-out: Visual Growth Reduction (%) 14 Days After Application, STEME.
The mark [15] stands for this setting: TRZAS: wheat, spring (Triticum aestivum), read-out: Visual Growth Reduction (%) 14 Days After Application, TRZAS.

Like-named read-outs stand apart in the source and are kept apart here.

Consider `COC(=O)c1nc(-c2ccc(C#N)cc2)c(F)cc1Cl` [F168, Methyl 3-chloro-6-(4-cyanophenyl)-5-fluoropicolinate], for which the pest or weed control at 140 g/ha is, setting by setting: under setting [1], 0 to 29%; under setting [2], 30 to 44%; under setting [3], 0 to 29%; under setting [4], 45 to 59%; under setting [5], 0 to 29%; under setting [6], 0 to 29%. In addition, the pest or weed control at 140 g/ha was 60 to 74% under setting [7]; 30 to 44% under setting [8]; 60 to 74% under setting [9]; 0 to 29% under setting [10]; 0 to 29% under setting [11]; 30 to 44% under setting [12]. Further, the pest or weed control at 140 g/ha by setting is: under setting [13], 30 to 44%; under setting [14], 0 to 29%; under setting [15], 0 to 29%.
Regarding `COC(=O)c1nc(-c2ccc(S(C)(=O)=O)cc2)c(F)cc1Cl` [F169, Methyl 3-chloro-5-fluoro-6-(4-(methylsulfonyl)phenyl)picolinate], the pest or weed control at 140 g/ha under setting [1] lay within 0 to 29%; the pest or weed control at 140 g/ha under setting [2] fell in the range of 30 to 44%; the pest or weed control at 140 g/ha under setting [3] lay in the range of 0 to 29%; the pest or weed control at 140 g/ha under setting [4] lay in the range of 30 to 44%; the pest or weed control at 140 g/ha under setting [5] was in the range of 0 to 29%; the pest or weed control at 140 g/ha under setting [6] was 0 to 29%. Moreover, the pest or weed control at 140 g/ha is, setting by setting: under setting [7], 30 to 44%; under setting [8], 45 to 59%; under setting [9], 60 to 74%; under setting [10], 30 to 44%; under setting [11], 0 to 29%; under setting [12], 60 to 74%. Besides, the pest or weed control at 140 g/ha under setting [13] lay within 60 to 74%, the pest or weed control at 140 g/ha under setting [14] lay within 0 to 29% and the pest or weed control at 140 g/ha under setting [15] lay within 0 to 29%.
As to `COC(=O)c1nc(-c2ccc(C(F)(F)F)cc2C)c(F)cc1Cl` [F170, Methyl 3-chloro-5-fluoro-6-(2-methyl-4-(trifluoromethyl)phenyl)picolinate], the pest or weed control at 140 g/ha was 45 to 59% under setting [1]; 95 to 100% under setting [2]; 30 to 44% under setting [3]; 95 to 100% under setting [4]; 85 to 94% under setting [5]; 60 to 74% under setting [6]. In addition, the pest or weed control at 140 g/ha by setting is: under setting [7], 85 to 94%; under setting [8], 60 to 74%; under setting [9], 95 to 100%; under setting [10], 60 to 74%; under setting [11], 0 to 29%; under setting [12], 85 to 94%. The pest or weed control at 140 g/ha lay within 85 to 94% under setting [13], 0 to 29% under setting [14] and 60 to 74% under setting [15].
In the case of `CCN(CC)c1c(Cl)ccc(-c2ccc(Cl)c(C(=O)OC)n2)c1F` [F171], the pest or weed control at 140 g/ha was 0 to 29% under setting [1]; 0 to 29% under setting [2]; 0 to 29% under setting [3]; 60 to 74% under setting [4]; 0 to 29% under setting [5]; 0 to 29% under setting [6]. Besides, the pest or weed control at 140 g/ha fell in the range of 0 to 29% under setting [7]; 0 to 29% under setting [8]; 0 to 29% under setting [9]; 30 to 44% under setting [10]; 0 to 29% under setting [11]; 0 to 29% under setting [12]. Besides, the pest or weed control at 140 g/ha is, setting by setting: under setting [13], 0 to 29%; under setting [14], 0 to 29%; under setting [15], 0 to 29%.
Turning to `COC(=O)c1nc(-c2cc3c(cc2F)OC(F)(F)O3)ccc1Cl` [F172, Methyl 3-chloro-6-(2,2,6-trifluorobenzo[d] [1,3]dioxol-5-yl)picolinate], the pest or weed control at 140 g/ha was in the range of 30 to 44% under setting [1]; 95 to 100% under setting [2]; 30 to 44% under setting [3]; 85 to 94% under setting [4]; 60 to 74% under setting [5]; 75 to 84% under setting [6]. In addition, the pest or weed control at 140 g/ha under setting [7] lay within 85 to 94%; the pest or weed control at 140 g/ha under setting [8] lay in the range of 75 to 84%; the pest or weed control at 140 g/ha under setting [9] was 95 to 100%; the pest or weed control at 140 g/ha under setting [10] was 30 to 44%; the pest or weed control at 140 g/ha under setting [11] was 0 to 29%; the pest or weed control at 140 g/ha under setting [12] is 45 to 59%. Further, the pest or weed control at 140 g/ha is, setting by setting: under setting [13], 95 to 100%; under setting [14], 0 to 29%; under setting [15], 45 to 59%.
Consider `COC(=O)c1nc(-c2cc3c(cc2F)OC(F)(F)O3)c(F)cc1Cl` [F173, Methyl 3-chloro-5-fluoro-6-(2,2,6-trifluorobenzo[d] [1,3]dioxol-5-yl)picolinate], for which the pest or weed control at 140 g/ha is, setting by setting: under setting [1], 60 to 74%; under setting [2], 95 to 100%; under setting [3], 75 to 84%; under setting [4], 95 to 100%; under setting [5], 85 to 94%; under setting [6], 75 to 84%. Also, the pest or weed control at 140 g/ha runs as follows: under setting [7], 95 to 100%; under setting [8], 85 to 94%; under setting [9], 95 to 100%; under setting [10], 60 to 74%; under setting [11], 0 to 29%; under setting [12], 75 to 84%. The pest or weed control at 140 g/ha reads like this: under setting [13], 95 to 100%; under setting [14], 0 to 29%; under setting [15], 60 to 74%.
`COC(=O)c1nc(-c2cc3c(cc2F)OC(F)(F)O3)c(Cl)cc1Cl` [F174, Methyl 3,5-dichloro-6-(2,2,6-trifluorobenzo[d] [1,3]dioxol-5-yl)picolinate]: the pest or weed control at 140 g/ha lay within 0 to 29% under setting [1]; 85 to 94% under setting [2]; 0 to 29% under setting [3]; 85 to 94% under setting [4]; 0 to 29% under setting [5]; 0 to 29% under setting [6]. Also, the pest or weed control at 140 g/ha runs as follows: under setting [7], 85 to 94%; under setting [8], 0 to 29%; under setting [9], 95 to 100%; under setting [10], 0 to 29%; under setting [11], 0 to 29%; under setting [12], 30 to 44%. Besides, the pest or weed control at 140 g/ha reads like this: under setting [13], 85 to 94%; under setting [14], 0 to 29%; under setting [15], 0 to 29%.
For `O=C(O)c1nc(-c2cc3c(cc2Cl)OC(F)(F)O3)c(F)cc1Cl` [F175, 3-Chloro-6-(6-chloro-2,2-difluorobenzo[d] [1,3]dioxol-5-yl)-5-fluoropicolinic acid], the pest or weed control at 140 g/ha lay in the range of 60 to 74% under setting [1]; 95 to 100% under setting [2]; 60 to 74% under setting [3]; 95 to 100% under setting [4]; 85 to 94% under setting [5]; 0 to 29% under setting [6]. Moreover, the pest or weed control at 140 g/ha under setting [7] is 95 to 100%; the pest or weed control at 140 g/ha under setting [8] was 85 to 94%; the pest or weed control at 140 g/ha under setting [9] was in the range of 95 to 100%; the pest or weed control at 140 g/ha under setting [10] is 85 to 94%; the pest or weed control at 140 g/ha under setting [11] was in the range of 45 to 59%; the pest or weed control at 140 g/ha under setting [12] lay within 85 to 94%. Besides, the pest or weed control at 140 g/ha runs as follows: under setting [13], 95 to 100%; under setting [14], 0 to 29%; under setting [15], 85 to 94%.
